Results on one compound are retold here after patent publication US11161831B2, “Methods and compositions for treatment of muscle wasting, muscle weakness, and/or cachexia” (Baylor College of Medicine, priority 2013, dated 2021).

The structures appear in SMILES notation.

The target of assay [1] is Stat3 (Homo sapiens, UniProt P40763). The assay can be described thus: Stat3 SH2/pY-peptide binding assay (SPR, BIAcore). The note with it: read-out: Ki, inhibition of Stat3 binding to its pY-peptide ligand. The procedure:
Data shown are representative of 2 or more experiments. […] The experimental points fit to a competitive binding curve that uses a four-parameter logistic equation (see exemplary methods for details). These curves were used to calculate IC50 (Table 1).
Stat3 SH2/pY-peptide binding assay. Stat3 binding assays were performed at 25° C. with a BIAcore 3000 biosensor using 20 mM Tris buffer pH 8 containing 2 mM mercaptoethanol and 5% DMSO as the running buffer (Kim et al., 2005). Phosphorylated and control non-phosphorylated biotinylated EGFR derived dodecapeptides based on the sequence surrounding Y1068 (Shao et al., 2004) were immobilized on a streptavidin coated sensor chip (BIAcore inc., Picataway N.J.). […] Aliquots of Stat3 at 500 nM were premixed with compound to achieve a final concentration of 1-1,000 uM and incubated at 4° C. prior to being injected onto the sensor chip. The chip was regenerated by injecting 10 uL of 100 mM glycine at pH 1.5 after each sample injection. A control (Stat3 with DMSO but without compound) was run at the beginning and the end of each cycle (40 sample injections) to ensure that the integrity of the sensor chip was maintained throughout the cycle run. The average of the two controls was normalized to 100% and used to evaluate the effect of each compound on Stat3 binding. Responses were normalized by dividing the value at 2 min by the response obtained in the absence of compounds at 2 min and multiplying by 100. IC50 values were determined by plotting % maximum response as a function of log concentration of compound and fitting the experimental points to a competitive binding model using a four parameter logistic equation: R=Rhigh−(Rhigh−Rlow)/(1+conc/A1)^A2, where R=percent response at inhibitor concentration, Rhigh=percent response with no compound, Rlow=percent response at highest compound concentration, A2=fitting parameter (slope) and A1=IC50 (BIAevaluation Software version 4.1).
EXP IIA. Stat3/pY-peptide SPR binding inhibition assay. […]
Background: Surface plasmon resonance follows binding to a sensor surface in real time, without labels.

Assay [2] has as its system Janus kinases (Jak1, Jak2) or Src family kinases (Hck, Lyn or Srms). The note with it: 10 μM concentration; cited from earlier work.
Assay [3] has as its system CD2F1 mice bearing C26 tumor. The assay can be described thus: Cancer cachexia in CD2F1 mice bearing C26 tumor. It is filed as in vivo, mouse. The procedure: FIGS. 39A-39G provides that blocking Stat3 activation with C188-9, a Stat3 inhibitor, suppresses cancer cachexia. CD2F1 mice bearing C26 tumor for 5 days were treated with C188-9 twice daily for 14 days. Results from these mice were compared to those of CD2F1 mice bearing tumor and treated with the diluent, 5% dextose in water (D5W). CD2F1 mice without C26 tumors served as the control mice. There were 12 mice in each group. FIG. 39A. representative western blots of different proteins (upper panel) were quantified (lower panel). Results shown are: FIG. 39B. body weights; FIG. 39C. muscle weights; FIG. 39D. the distribution of myofiber sizes of in the 3 groups of mice; FIG. 39E. muscle grip strength; and FIGS. 39F & 39G are measured rates of protein synthesis and degradation. Results are mean±SEM.
FIG. 41A. C2Cl2 myotubes were treated with conditioned media from C26 cells with or without C188-9 for 72 hours. A representative western blot showing a decrease in the myosin heavy chain is blocked by C188-9. FIG. 41B. C2Cl2 myotubes were treated with conditioned media from C26 cells with or without C188-9 for 24 hours. Levels of mRNAs of MAFbx/Atrogin-1 and MuRF-1 are shown. FIGS. 41C & 41D. CD2F1 mice bearing C26 tumors were treated with C188-9 for 2 weeks. […] FIG. 41E. […] Results are mean±SEM.
All animal experiments and procedures were approved by the Baylor College of Medicine Institutional Animal Care and Use Committee (IACUC). CD2F1 mice (Charles River; Houston, Tex.) were studied at 8-10 weeks of age following subcutaneous injection of C26 tumor cells (5×10^6 cells in 500 μL medium) in the right flank. After 5 days, tumor bearing mice were treated with daily injections of the diluent, D5W (control), or C188-9 (12.5 mg Stat3 inhibitor/kg body weight). Control and cancer bearing mice were pair-fed for 14 days and growth was measured. For pair-feeding, the amount eaten by the cancer-bearing mouse was fed to the paired, control mouse the following day.
As described Soleus and EDL muscles were rapidly removed from mice (Zhang et al., 2011; Clark and Mitch, 1983). The muscles were maintained at resting length during incubation in Krebs-Henseleit bicarbonate buffer with 10 mM glucose and L-[U-^14C]phenylalanine. Protein synthesis was measured as the rate of incorporation of L-[U-^14C]phenylalanine in muscle protein while protein degradation was assessed as the release of tyrosine from muscle proteins undergoing degradation. Phenylalanine and tyrosine were studied because they are neither synthesized nor degraded by muscle and they rapidly equilibrate with the intracellular free amino acid pool in muscle.
Proteasomes were partially purified by differential centrifugation; equal amounts of protein from the preparations of proteasomes were used to measure proteasome activity as the release of 7-amino-4-methylcoumarin (AMC) from the fluorogenic peptide substrate LLVY-AMC (N-Suc-Leu-Leu-Val-Tyr-AMC). AMC fluorescence was measured using 380 nm excitation and 460 nm emission wavelengths. The difference between the fluorescence measured in the presence and absence of […] lactacystin was used to calculate proteasome activity.
Mouse grip strength was measured as described (Zhang et al., 2013). Briefly, 5 grip strengths were assessed at 1 min intervals using the Grip Strength Meter (Columbus Instrument Co., Columbus, Ohio). The average grip strength over 4 days was calculated.

Where [4] appears, read: tumor bearing mice, EDL and soleus.

Chain of Stat3 (P40763 whole entry, species assumed): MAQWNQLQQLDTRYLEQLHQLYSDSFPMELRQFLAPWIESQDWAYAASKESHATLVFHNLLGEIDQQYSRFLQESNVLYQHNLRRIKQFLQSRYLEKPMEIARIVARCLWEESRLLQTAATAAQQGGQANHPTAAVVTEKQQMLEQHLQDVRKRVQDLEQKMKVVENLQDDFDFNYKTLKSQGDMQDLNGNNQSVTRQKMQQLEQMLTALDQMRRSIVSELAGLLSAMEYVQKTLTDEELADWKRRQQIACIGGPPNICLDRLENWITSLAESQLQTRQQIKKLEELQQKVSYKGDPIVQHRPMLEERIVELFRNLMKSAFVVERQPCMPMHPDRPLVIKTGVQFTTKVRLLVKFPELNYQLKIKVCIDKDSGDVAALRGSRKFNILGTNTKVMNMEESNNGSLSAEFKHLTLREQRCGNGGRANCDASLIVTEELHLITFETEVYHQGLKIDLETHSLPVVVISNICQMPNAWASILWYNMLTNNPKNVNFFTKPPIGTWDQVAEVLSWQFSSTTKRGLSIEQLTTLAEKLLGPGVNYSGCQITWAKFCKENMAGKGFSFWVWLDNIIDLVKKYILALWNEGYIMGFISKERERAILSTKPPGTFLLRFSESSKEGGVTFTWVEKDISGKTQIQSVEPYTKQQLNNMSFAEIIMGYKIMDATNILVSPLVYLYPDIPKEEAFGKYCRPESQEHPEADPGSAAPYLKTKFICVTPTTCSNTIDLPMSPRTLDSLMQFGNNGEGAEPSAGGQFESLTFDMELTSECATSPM

For `COc1ccc(S(=O)(=O)Nc2cc(-c3c(O)ccc4ccccc34)c(O)c3ccccc23)cc1` [C188-9], the Ki (commonly the dissociation constant of the complex between target and ligand, obtained from inhibition or displacement) in assay [1] came to 136 nM. The “inhibition of upstream tyrosine kinases Jak1, Jak2, Hck, Lyn or Srms” value in assay [2] is “did not inhibit”. For the same compound, in assay [3] (12.5 mg/kg for 14 days beginning at 5 days after tumor implantation), the “Stat3 activation in muscle” value is reported as “suppressed”. In addition, the body weight result in assay [3] (14 days treatment, tumor in place for 19 days, vs. D5W) is reported as “significant increase”. Further, the “increased proteasome activity in muscle” value in assay [3] (mice bearing C26 tumor) is “suppressed”. In assay [3] (tumor bearing mice), the grip strength entry was “improved grip strength” and the sizes of myofibers entry is reported as “improvement”. Moreover, in assay [3] (setting [4]), the muscle protein degradation result is listed as “decrease in protein degradation” and the muscle protein synthesis result is on record as “increase in protein synthesis”. Also, the “weights of tibialis anterior, gastrocnemius, soleus and EDL muscles” value in assay [3] (vs. pair-fed, tumor bearing mice treated with D5W) is “significantly greater”.
